Laboratory results: ChEMBL document CHEMBL1123019, “N-phenylpiperazine derivatives with hypocholesterolemic activity” (J Med Chem, 1985)

What was measured:
[1] = test system: Mus musculus; experiment: Dose required for 50% reduction of spontaneous locomotory activity in mice when administered orally; assay type: functional; settings: po
[2] = Dose required for 50% lethality after intraperitoneal administration in mice; assay type: ADME, organism-based; settings: mouse, in vivo, ip
[3] = test system: Rattus norvegicus; experiment: Dose required for 50% reduction of plasma cholesterol in rat when administered orally (200 mg/kg maximal administered dose); assay type: functional; settings: po
[4] = test system: Rattus norvegicus; experiment: Dose required for 50% reduction of plasma cholesterol in rat when administered orally.; assay type: functional; settings: po
[5] = test system: Mus musculus; experiment: Dose required for 50% reduction of spontaneous locomotory activity in mice when administered orally (120 mg/kg is maximal dose administered); assay type: functional; settings: po
[6] = test system: Rattus norvegicus; experiment: Percent increase in liver weight in plasma was evaluated 10 mg/kg in rat; assay type: functional
[7] = test system: Rattus norvegicus; experiment: Percent reduction of phospholipid level in plasma was evaluated 10 mg/kg in rat; assay type: functional
[8] = test system: Rattus norvegicus; experiment: Percent reduction of phospholipid level in plasma was evaluated 100 mg/kg in rat; assay type: functional
[9] = test system: Rattus norvegicus; experiment: Percent reduction of phospholipid level in plasma was evaluated 30 mg/kg in rat; assay type: functional
[10] = test system: Rattus norvegicus; experiment: Percent reduction of total cholesterol level in plasma was evaluated at dose 10 mg/kg in rat; assay type: functional
[11] = test system: Rattus norvegicus; experiment: Percent reduction of triglyceride level in plasma was evaluated 30 mg/kg in rat; assay type: functional
[12] = test system: Rattus norvegicus; experiment: Percent reduction of total cholesterol level in plasma was evaluated at dose 100 mg/kg in rat; assay type: functional
[13] = test system: Rattus norvegicus; experiment: Percent reduction of total cholesterol level in plasma was evaluated at dose 3 mg/kg in rat; assay type: functional
[14] = test system: Rattus norvegicus; experiment: Percent reduction of total cholesterol level in plasma was evaluated at dose 30 mg/kg in rat; assay type: functional
[15] = test system: Rattus norvegicus; experiment: Percent reduction of triglyceride level in plasma was evaluated 10 mg/kg in rat; assay type: functional
[16] = test system: Rattus norvegicus; experiment: Percent increase in liver weight in plasma was evaluated 100 mg/kg in rat; assay type: functional
[17] = test system: Rattus norvegicus; experiment: Percent increase in liver weight in plasma was evaluated 30 mg/kg in rat; assay type: functional
[18] = test system: Rattus norvegicus; experiment: Percent reduction of triglyceride level in plasma was evaluated 100 mg/kg in rat; assay type: functional
[19] = test system: Rattus norvegicus; experiment: Percent increase in liver weight in plasma was evaluated 12.5 mg/kg in rat; assay type: functional
[20] = test system: Rattus norvegicus; experiment: Percent increase in liver weight in plasma was evaluated 25 mg/kg in rat; assay type: functional
[21] = test system: Rattus norvegicus; experiment: Percent increase in liver weight in plasma was evaluated 50 mg/kg in rat; assay type: functional
[22] = test system: Rattus norvegicus; experiment: Percent reduction of phospholipid level in plasma was evaluated 12.5 mg/kg in rat; assay type: functional
[23] = test system: Rattus norvegicus; experiment: Percent reduction of phospholipid level in plasma was evaluated 25 mg/kg in rat; assay type: functional
[24] = test system: Rattus norvegicus; experiment: Percent reduction of triglyceride level in plasma was evaluated 12.5 mg/kg in rat; assay type: functional
[25] = test system: Rattus norvegicus; experiment: Percent reduction of triglyceride level in plasma was evaluated 25 mg/kg in rat; assay type: functional
[26] = test system: Rattus norvegicus; experiment: Percent reduction of triglyceride level in plasma was evaluated 300 mg/kg; in rat; assay type: functional
[27] = test system: Rattus norvegicus; experiment: Percent reduction of triglyceride level in plasma was evaluated 50 mg/kg in rat; assay type: functional
[28] = test system: Rattus norvegicus; experiment: Percent reduction of total cholesterol level in plasma was evaluated at dose 12.5 mg/kg in rat; assay type: functional
[29] = test system: Rattus norvegicus; experiment: Percent reduction of total cholesterol level in plasma was evaluated at dose 25 mg/kg in rat; assay type: functional
[30] = test system: Rattus norvegicus; experiment: Percent reduction of total cholesterol level in plasma was evaluated at dose 300 mg/kg in rat; assay type: functional
[31] = test system: Rattus norvegicus; experiment: Percent reduction of total cholesterol level in plasma was evaluated at dose 50 mg/kg in rat; assay type: functional
[32] = test system: Rattus norvegicus; experiment: Percent increase in liver weight in plasma was evaluated 300 mg/kg in rat; assay type: functional
[33] = test system: Mus musculus; experiment: Dose required for 50% reduction of spontaneous locomotory activity in mice when administered orally (100 mg/kg is maximal dose administered); assay type: functional; settings: po
[34] = test system: Rattus norvegicus; experiment: Dose required for 50% reduction of plasma cholesterol in rat when administered orally.(100 mg/kg is maximal dose administered); assay type: functional; settings: po
[35] = test system: Mus musculus; experiment: Dose required for 50% reduction of spontaneous locomotory activity in mice when administered orally (200 mg/kg maximal administered dose); assay type: functional; settings: po
[36] = test system: Rattus norvegicus; experiment: Dose required for 50% reduction of plasma cholesterol in rat when administered orally (100 mg/kg maximal administered dose); assay type: functional; settings: po
[37] = test system: Rattus norvegicus; experiment: Dose required for 50% reduction of plasma cholesterol in rat when administered orally; assay type: functional; settings: po
[38] = test system: Mus musculus; experiment: Dose required for 50% reduction of spontaneous locomotory activity in mice when administered orally (200 mg/kg is maximal dose administered); assay type: functional; settings: po
[39] = test system: Rattus norvegicus; experiment: Dose required for 50% reduction of plasma cholesterol in rat when administered orally. (100 mg/kg is maximal dose administered); assay type: functional; settings: po
[40] = test system: Rattus norvegicus; experiment: Dose required for 50% reduction of plasma cholesterol in rat when administered orally (45 mg/kg maximal administered dose); assay type: functional; settings: po
[41] = test system: Rattus norvegicus; experiment: Percent reduction of phospholipid level in plasma was evaluated 300 mg/kg in rat; assay type: functional
[42] = test system: Rattus norvegicus; experiment: Percent reduction of total cholesterol level in plasma was evaluated 100 mg/kg in rat; assay type: functional
[43] = test system: Rattus norvegicus; experiment: Percent reduction of total cholesterol level in plasma was evaluated 300 mg/kg in rat; assay type: functional
[44] = test system: Rattus norvegicus; experiment: Percent reduction of triglyceride level in plasma was evaluated 300 mg/kg in rat; assay type: functional

## CC(C)(C)NC(=O)OC(CCN1CCN(c2ccccc2)CC1)C(=O)c1ccc(F)cc1 (stereo unspecified)
[1]
  ED50: 200 mg/kg
[2]
  LD50: > 1000 mg/kg
[3]
  ED50: 18 mg/kg

## CC(=O)OC(CCN1CCN(c2ccccc2)CC1)C(=O)c1ccc(F)cc1.O=C(O)/C=C/C(=O)O (stereo unspecified)
[1]
  ED50: 56 mg/kg
[2]
  LD50: 575 mg/kg
[4]
  ED50: 100 mg/kg

## Cl.O=c1oc(CCN2CCN(c3cccc(Cl)c3)CC2)c(-c2ccc(F)cc2)o1
[1]
  ED50: 46 mg/kg
[2]
  LD50: 500 mg/kg

## Cl.O=c1oc(CCN2CCN(c3ccccc3)CC2)c(-c2ccc(Cl)cc2)o1
[5]
  ED50: 31 mg/kg
[2]
  LD50: 865 mg/kg
[4]
  ED50: 11.3 mg/kg
[6]
  Increase: 3%
[7]
  Reduction: 14%
[8]
  Reduction: 83%
[9]
  Reduction: 58%
[10]
  Reduction: 48%
[11]
  Reduction: 22%
[12]
  Reduction: 100%
[13]
  Reduction: 16%
[14]
  Reduction: 72%
[15]
  Reduction: 15%
[16]
  Increase: 28%
[17]
  Increase: 13%
[18]
  Reduction: 63%

## Cc1ccc(-c2oc(=O)oc2CCN2CCN(c3ccccc3)CC2)cc1.Cl
[2]
  LD50: > 1000 mg/kg
[4]
  ED50: 80 mg/kg

## Cl.O=c1oc(CCN2CCN(c3ccccc3)CC2)c(-c2ccc(F)cc2)o1
[1]
  ED50: 100 mg/kg
[2]
  LD50: 936 mg/kg
[4]
  ED50: 18.6 mg/kg
[19]
  Increase: 9%
[20]
  Increase: 12%
[21]
  Increase: 12%
[8]
  Reduction: 75%
[22]
  Reduction: 19%
[23]
  Reduction: 52%
[24]
  Reduction: 12%
[25]
  Reduction: 20%
[26]
  Reduction: 82%
[27]
  Reduction: 36%
[12]
  Reduction: 85%
[28]
  Reduction: 39%
[29]
  Reduction: 57%
[30]
  Reduction: 97%
[31]
  Reduction: 76%
[16]
  Increase: 33%
[32]
  Increase: 43%
[18]
  Reduction: 27%

## Cl.O=c1oc(CCN2CCN(c3cc(Cl)cc(Cl)c3)CC2)c(-c2ccc(F)cc2)o1
[33]
  ED50: 16 mg/kg
[2]
  LD50: > 1000 mg/kg
[34]
  ED50: 5 mg/kg

## Cl.O=c1oc(CCN2CCN(c3ccccc3)CC2)c(-c2ccccc2)o1
[1]
  ED50: 50 mg/kg
[2]
  LD50: 500 mg/kg
[4]
  ED50: 50 mg/kg

## COc1cc(C(=O)OC(CCN2CCN(c3ccccc3)CC2)C(=O)c2ccc(F)cc2)cc(OC)c1OC.Cl (stereo unspecified)
[35]
  ED50: 13 mg/kg
[2]
  LD50: > 1000 mg/kg
[36]
  ED50: 21 mg/kg

## Cl.O=C(c1ccc(F)cc1)C(O)CCN1CCN(c2ccccc2)CC1 (stereo unspecified)
[1]
  ED50: 35 mg/kg
[2]
  LD50: > 1000 mg/kg
[4]
  ED50: 50 mg/kg

## Cl.O=c1oc(CCN2CCN(c3cccc(C(F)(F)F)c3)CC2)c(-c2ccc(F)cc2)o1
[1]
  ED50: 200 mg/kg
[2]
  LD50: 1000 mg/kg

## CSc1ccc(-c2oc(=O)oc2CCN2CCN(c3ccccc3)CC2)cc1.Cl
[1]
  ED50: 200 mg/kg
[2]
  LD50: > 1000 mg/kg
[34]
  ED50: 15 mg/kg

## Cl.O=c1oc(CCCN2CCN(c3ccccc3)CC2)c(-c2ccc(F)cc2)o1
[37]
  ED50: 50 mg/kg

## Cl.O=c1oc(CCN2CCN(c3ccccc3)CC2)c(-c2ccc(-c3ccccc3)cc2)o1
[38]
  ED50: 29 mg/kg
[2]
  LD50: > 1000 mg/kg

## Cl.O=c1oc(CCN2CCN(c3ccc(Cl)c(Cl)c3)CC2)c(-c2ccc(F)cc2)o1
[1]
  ED50: 120 mg/kg
[39]
  ED50: 20 mg/kg

## Cl.O=c1oc(CCN2CCN(c3ccc(Cl)cc3)CC2)c(-c2ccc(Cl)cc2)o1
[2]
  LD50: > 1000 mg/kg
[34]
  ED50: 8 mg/kg

## COc1ccc(-c2oc(=O)oc2CCN2CCN(c3ccccc3)CC2)cc1.Cl
[1]
  ED50: 75 mg/kg
[2]
  LD50: > 1000 mg/kg
[34]
  ED50: 25 mg/kg

## COc1ccccc1N1CCN(CCc2oc(=O)oc2-c2ccc(F)cc2)CC1.Cl
[1]
  ED50: 47 mg/kg
[2]
  LD50: 350 mg/kg
[39]
  ED50: 25 mg/kg

## CN(C)C(=O)OC(CCN1CCN(c2ccccc2)CC1)C(=O)c1ccc(F)cc1.Cl (stereo unspecified)
[1]
  ED50: 30 mg/kg
[2]
  LD50: 150 mg/kg
[40]
  ED50: 35 mg/kg

## CCOC(=O)C(C)(C)Oc1ccc(Cl)cc1 [CLOFIBRATE]
[8]
  Reduction: 23%
[41]
  Reduction: -11%
[42]
  Reduction: 46%
[43]
  Reduction: 43%
[11]
  Reduction: 20%
[14]
  Reduction: 31%
[16]
  Reduction: 21%
[17]
  Increase: 3%
[32]
  Increase: 51%
[18]
  Reduction: 7%
[44]
  Reduction: -39%
